Data taken from PubChem BioAssay (NCI).
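Results reflect a 48-hour exposure of cells in 96-well plates to compound at five concentrations. TGI: total growth inhibition.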

Experiments:
Assay in all cases: inhibition of tumour cell growth, NCI panel, 48 h
HT29 colon = system: HT29 colon
MOLT-4 leukemia = system: MOLT-4 leukemia
OVCAR-4 ovarian = system: OVCAR-4 ovarian
LOX IMVI melanoma = system: LOX IMVI melanoma
HCT-116 colon = system: HCT-116 colon
NCI-H522 lung = system: NCI-H522 lung
EKVX NSCLC = system: EKVX NSCLC
RXF 393 renal = system: RXF 393 renal
A498 renal = system: A498 renal
NCI-H23 lung = system: NCI-H23 lung
K-562 leukemia = system: K-562 leukemia
KM12 colon = system: KM12 colon
SNB-75 CNS = system: SNB-75 CNS
SNB-19 CNS = system: SNB-19 CNS
SF-539 CNS = system: SF-539 CNS
MDA-MB-435 = system: MDA-MB-435
NCI/ADR-RES ovarian = system: NCI/ADR-RES ovarian
MDA-N = system: MDA-N
DU-145 prostate = system: DU-145 prostate
MCF7 breast = system: MCF7 breast

Row | SMILES | TGI (HT29 colon) | TGI (MOLT-4 leukemia) | TGI (OVCAR-4 ovarian) | TGI (LOX IMVI melanoma) | TGI (HCT-116 colon) | TGI (NCI-H522 lung) | TGI (EKVX NSCLC) | TGI (RXF 393 renal) | TGI (A498 renal) | TGI (NCI-H23 lung) | TGI (K-562 leukemia) | TGI (KM12 colon) | TGI (SNB-75 CNS) | TGI (SNB-19 CNS) | TGI (SF-539 CNS) | TGI (MDA-MB-435) | TGI (NCI/ADR-RES ovarian) | TGI (MDA-N) | TGI (DU-145 prostate) | TGI (MCF7 breast)
1 | O=C(Nc1ccc([N+](=O)[O-])cc1[N+](=O)[O-])C(=O)C(C(=O)c1ccc(Cl)c(Cl)c1)C1OC(=O)c2ccccc21 (stereo not given) | 71.1 µM | 76.8 µM | > 100 µM | 41.4 µM | 38.4 µM | 44.7 µM | > 100 µM | 24.8 µM | 68.8 µM | 39.8 µM | 82 µM | 37 µM | > 100 µM | 66.7 µM | – | – | – | – | – | –
2 | C=C1C2CC3CCC2C(OC(=O)c2ccccc2C(=O)O)C13 (stereo not given) | > 100 µM | > 100 µM | > 100 µM | > 100 µM | > 100 µM | > 100 µM | > 100 µM | > 100 µM | > 100 µM | > 100 µM | > 100 µM | > 100 µM | > 100 µM | > 100 µM | > 100 µM | > 100 µM | > 100 µM | > 100 µM | > 100 µM | –
3 | CNn1c(-c2ccc(C)cc2)n[nH]c1=O | > 100 µM | > 100 µM | > 100 µM | > 100 µM | > 100 µM | > 100 µM | > 100 µM | > 100 µM | > 100 µM | > 100 µM | > 100 µM | > 100 µM | – | > 100 µM | > 100 µM | > 100 µM | > 100 µM | – | – | > 100 µM
4 | CC(C)=CCC/C(C)=C/Cc1c(O)c(C)cc2c1[nH]c1cc(O)ccc12 | > 25 µM | > 25 µM | > 25 µM | > 25 µM | > 25 µM | > 25 µM | – | > 25 µM | – | – | > 25 µM | > 25 µM | – | > 25 µM | > 25 µM | – | – | – | – | –
5 | CC1(C2COC(=O)C2)SCCCS1 (stereo not given) | > 100 µM | > 100 µM | > 100 µM | > 100 µM | > 100 µM | 10.9 µM | > 100 µM | > 100 µM | – | > 100 µM | – | > 100 µM | > 100 µM | > 100 µM | > 100 µM | – | – | – | – | –
6 | Cc1cc(S(=O)(=O)NC2=NCCCN2)c(S)cc1Cl | 49.6 µM | – | > 100 µM | 42.6 µM | 94.1 µM | 62.8 µM | > 100 µM | > 100 µM | > 100 µM | – | 75.9 µM | > 100 µM | > 100 µM | > 100 µM | > 100 µM | 54.7 µM | > 100 µM | > 100 µM | > 100 µM | –
7 | O=NN1CCN=C1c1ccc([N+](=O)[O-])cc1 | > 100 µM | > 100 µM | > 100 µM | > 100 µM | > 100 µM | > 100 µM | – | > 100 µM | – | > 100 µM | > 100 µM | > 100 µM | > 100 µM | > 100 µM | > 100 µM | – | – | – | – | –
8 | COc1ccc(C[C@@H](C(=O)O[C@H](C)[C@H](NC(=O)[C@@H](CC(C)C)N(C)C(=O)C2CCCN2C(=O)[C@H](C)O)C(=O)N2CCCCNC(=O)[C@@H](C)C(=O)[C@H](C(C)C)OC(=O)C[C@H](O)[C@H]2CC(C)C)N(C)C(C)=O)cc1 (stereo not given in full) | 25.4 µM | 35.2 µM | > 50 µM | – | > 50 µM | > 50 µM | 37.1 µM | 20.6 µM | 43.6 µM | 42.5 µM | 39.7 µM | 31.6 µM | > 50 µM | > 50 µM | 17.1 µM | > 50 µM | > 50 µM | – | > 50 µM | > 50 µM
9 | C=CC(=O)Nc1ccccc1CC(c1c[nH]c2ccccc12)c1c[nH]c2ccccc12 | 37.5 µM | 46.4 µM | – | 36.3 µM | – | 48.2 µM | 51 µM | – | – | 38.2 µM | 49.2 µM | 38.7 µM | 28.4 µM | 31.8 µM | 36.6 µM | – | – | – | – | –
10 | NCCCC(N=Cc1nc(-c2ccccc2)oc1O)C(=O)O (stereo not given) | > 100 µM | > 100 µM | > 100 µM | > 100 µM | > 100 µM | > 100 µM | > 100 µM | > 100 µM | > 100 µM | > 100 µM | > 100 µM | – | > 100 µM | > 100 µM | > 100 µM | – | – | – | – | –
11 | CCOC(=O)c1csc(C(CSCc2ccc(OC)cc2)N2C(=O)c3ccccc3C2=O)n1 (stereo not given) | > 100 µM | > 100 µM | > 100 µM | > 100 µM | > 100 µM | 58.4 µM | > 100 µM | > 100 µM | > 100 µM | > 100 µM | > 100 µM | > 100 µM | – | > 100 µM | > 100 µM | > 100 µM | > 100 µM | – | > 100 µM | > 100 µM
